The values below come from paper PMC5581314, “Targeting the Type II Secretion System: Development, Optimization, and Validation of a High-Throughput Screen for the Identification of Small Molecule Inhibitors” (Frontiers in Cellular and Infection Microbiology, 2017).

Molecules are shown by their SMILES.

One experiment deals with T1, LipA (Acinetobacter baumannii, UniProt A0ABX6CKD6).
T1 construct: gene lip; secreted LipA from plasmid-encoded lipBA, in culture supernatant
The experiment in a line: 4-nitrophenyl myristate lipase assay; IC50 in whole culture, direct inhibition by cell-free supernatant counter-screen. The class given is cell-based.
Details: not given
Consider `CCCCCCCCCCC[C@@H](C[C@@H]1OC(=O)[C@H]1CCCCCC)OC(=O)[C@H](CC(C)C)NC=O` [Orlistat], for which the IC50 was found to be 0.0406 µM.

`CNCCCN1c2ccccc2CCc2ccccc21` [Desiprimine] gave an IC50 of 16.5 µM.

Staying with this experiment, now noted: read-out: IC50.
Regarding `CNCCC=C1c2ccccc2CCc2ccccc21` [Aventyl], the IC50 was 14.5 µM.

`CN(CCCN1c2ccccc2CCc2ccccc21)CC(=O)c1ccc(Cl)cc1` [Lofepramine]: the half-inhibitory concentration (IC50) came to 21 µM.

As for `CNCCC=C1c2ccccc2C=Cc2ccccc21` [Norcyclobenzaprine], the concentration for half-maximal inhibition (IC50) worked out at 16 µM.

`CNCCCC1c2ccccc2C=Cc2ccccc21` [Vivactil]: the IC50 was 10 µM.

Usually IC50 stands for the point on the concentration scale where inhibition reaches its midpoint.
